We go through 17 compounds from patent US9981964B2 (Agency for Science, Technology and Research, priority 2013, dated 2018).

In one assay the test system is mammalian PORCN. In words: PORCN-null HT1080 cells transfected with mammalian PORCN, WNT3A and STF reporter, luciferase. In kind it is cell-based. The note with it: STF luciferase, FIG. 1. As for the experimental part:
PORCN-null HT1080 cells were transfected with mammalian or Xenopus PORCN expression plasmids, along with WNT3A, STF reporter and mCherry as transfection control. 6 hours after transfection, cells were treated with the compounds or DMSO as indicated, and the following day assayed for luciferase. Xenopus PORCN was resistant to the inhibitory effects of compounds.

A further assay concerns HEK293-STF3A cells. Kind of assay: STF3A assay (STF luciferase reporter in Wnt3A-expressing HEK293 cells). The note with it: Homo sapiens, 24 h, 1 day of treatment. The format is cell-based. An outline of the steps: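 HEK293 cells carrying the STF reporter and expressing Wnt3A, seeded 2×10^4 per well overnight, then treated 1 day with compound at final 50 μM to 1.5 nM. Luciferase activity read by luminescence after Steady-Glo reagent, 10 min at room temperature.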
(In general: In a reporter assay the amount or activity of a reporter protein is the signal.)

Another assay deals with MMTV-Wnt1 tumor. In kind it is in vivo, BALBc mice. The note with it: daily treatment for 14 days, FIG. 2 and FIG. 3. As to the method:
8-10 weeks old Female BALBc mice were anesthetised with 150 mg/kg Ketamine +75 mg/kg Xylazine. Under aseptic conditions, skin near the 4th mammary fat pad was incised, Mammary fat pad was tweaked with forceps and tumor fragment ˜2 mm^3 was implanted. The incision was closed using a tissue adhesive. Animals were randomised into groups of eight and treated daily with the test compounds for 14 days. Tumors were measured in two dimensions using calipers, and volume was calculated using the formula: Tumor Volume (mm^3)=[…]. Maximum tumor volume limit was 2000 mm^3.

Structures are written as SMILES.

As a reminder, the IC50 is the concentration that gives 50% inhibition. As for `O=C(CN1CCCC2=C1C(=O)N(C1CC1)C2=O)Nc1ccc(-c2cccnc2)cn1` [Compound 14, N-([3,3′-bipyridin]-6-yl)-2-(6-cyclopropyl-5,7-dioxo-2,3,4,5,6,7-hexahydro-1 H-pyrrolo[3,4-b]pyridin-1-yl)acetamide], the “inhibition of the activity of mammalian porcupine” value with mammalian PORCN is “inhibit the activity of mammalian porcupine”. The IC50 in the assay with HEK293-STF3A cells was below 100 nM.

Turning to `O=C(CN1CCCC2=C1C(=O)N(C1CC1)C2=O)Nc1ccc(-c2cncc(F)c2)nn1` [Compound 52, 2-(6-cyclopropyl-5,7-dioxo-2,3,4,5,6,7-hexahydro-1H-pyrrolo[3,4-b]pyridin-1-yl)-N-(6-(5-fluoropyridin-3-yl)pyridazin-3-yl)acetamide], the “tumor growth in treated mice” value with MMTV-Wnt1 tumor was “decreased tumor growth in all the treated mice”. The compound further showed an IC50 with HEK293-STF3A cells below 100 nM.

On to `COc1cncc(-c2ccc(NC(=O)CN3CCCC4=C3C(=O)N(C3CC3)C4=O)cn2)c1` [Compound 144, 2-(6-cyclopropyl-5,7-dioxo-2,3,4,5,6,7-hexahydro-1H-pyrrolo[3,4-b]pyridin-1-yl)-N-(5′-methoxy-2,3′-bipyridin-5-yl)acetamide], for which, in the assay with HEK293-STF3A cells, the IC50 is below 100 nM.

For `COc1ccc(-c2ccc(NC(=O)CN3CCCC4=C3C(=O)N(C3CC3)C4=O)cn2)cn1` [Compound 145, 2-(6-cyclopropyl-5,7-dioxo-2,3,4,5,6,7-hexahydro-1H-pyrrolo[3,4-b]pyridin-1-yl)-N-(6′-methoxy-2,3′-bipyridin-5-yl)acetamide], the IC50 with HEK293-STF3A cells is below 100 nM.

`Cc1ccc(-c2ccc(NC(=O)CN3CCCC4=C3C(=O)N(C3CC3)C4=O)nc2)nc1` [Compound 146, 2-(6-cyclopropyl-5,7-dioxo-2,3,4,5,6,7-hexahydro-1H-pyrrolo[3,4-b]pyridin-1-yl)-N-(5-methyl-2,3′-bipyridin-6′-yl)acetamide] registered an IC50 in the assay on HEK293-STF3A cells below 1000 nM.

Consider `COc1cncc(-c2ccc(NC(=O)CN3CCCC4=C3C(=O)N(C3CC3)C4=O)nc2)c1` [Compound 147, 2-(6-cyclopropyl-5,7-dioxo-2,3,4,5,6,7-hexahydro-1H-pyrrolo[3,4-b]pyridin-1-yl)-N-(5′-methoxy-3,3′-bipyridin-6-yl)acetamide], for which the IC50 in the assay on HEK293-STF3A cells was below 100 nM.

`Cc1cncc(-c2ccc(NC(=O)CN3CCCC4=C3C(=O)N(C)C4=O)nc2)c1` [Compound 148, 2-(6-methyl-5,7-dioxo-2,3,4,5,6,7-hexahydro-1H-pyrrolo[3,4-b]pyridin-1-yl)-N-(5′-methyl-[3,3′-bipyridin]-6-yl)acetamide] showed an IC50 in the assay on HEK293-STF3A cells below 100 nM.

As for `Cc1cncc(-c2ccc(NC(=O)CN3CCCC4=C3C(=O)N(C)C4=O)cn2)c1` [Compound 149, 2-(6-methyl-5,7-dioxo-2,3,4,5,6,7-hexahydro-1H-pyrrolo[3,4-b]pyridin-1-yl)-N-(5′-methyl-[2,3′-bipyridin]-5-yl)acetamide], the IC50 in the assay on HEK293-STF3A cells was below 100 nM.

In turn, `Cc1ccnc(-c2ccc(NC(=O)CN3CCCC4=C3C(=O)N(C3CC3)C4=O)nc2)c1` [Compound 150, 2-(6-cyclopropyl-5,7-dioxo-2,3,4,5,6,7-hexahydro-1H-pyrrolo[3,4-b]pyridin-1-yl)-N-(4-methyl-[2,3′-bipyridin]-6′-yl)acetamide] came in with an IC50 in the assay with HEK293-STF3A cells below 100 nM.

On to `O=C(CN1CCCC2=C1C(=O)N(C1CC1)C2=O)Nc1cc(F)c(-c2cccnc2)cn1` [Compound 151, 2-(6-cyclopropyl-5,7-dioxo-2,3,4,5,6,7-hexahydro-1H-pyrrolo[3,4-b]pyridin-1-yl)-N-(4-fluoro-3,3′-bipyridin-6-yl)acetamide], for which the IC50 in the assay on HEK293-STF3A cells is below 100 nM.

Consider `CN1C(=O)C2=C(C1=O)N(CC(=O)Nc1ccc(-c3ccc(F)cc3)nc1)CCC2` [Compound 152, N-(6-(4-fluorophenyl)pyridin-3-yl)-2-(6-methyl-5,7-dioxo-2,3,4,5,6,7-hexahydro-1H-pyrrolo[3,4-b]pyridin-1-yl)acetamide], for which, in the assay on HEK293-STF3A cells, the IC50 was below 100 nM.

In the assay on HEK293-STF3A cells, `COc1cncc(-c2ccc(NC(=O)CN3CCCC4=C3C(=O)N(C3CC3)C4=O)nn2)c1` [Compound 153, 2-(6-cyclopropyl-5,7-dioxo-2,3,4,5,6,7-hexahydro-1H-pyrrolo[3,4-b]pyridin-1-yl)-N-(6-(5-methoxypyridin-3-yl)pyridazin-3-yl)acetamide] showed an IC50 below 100 nM.

In turn, `CN1C(=O)C2=C(C1=O)N(CC(=O)Nc1ccc(-c3cccc(F)c3)nc1)CCC2` [Compound 154, N-(6-(3-fluorophenyl)pyridin-3-yl)-2-(6-methyl-5,7-dioxo-2,3,4,5,6,7-hexahydro-1H-pyrrolo[3,4-b]pyridin-1-yl)acetamide] displayed an IC50 with HEK293-STF3A cells below 100 nM.

The compound `CN1C(=O)C2=C(C1=O)N(CC(=O)Nc1cc(F)c(-c3cccnc3)cn1)CCC2` [Compound 155, N-(4-fluoro-3,3′-bipyridin-6-yl)-2-(6-methyl-5,7-dioxo-2,3,4,5,6,7-hexahydro-1H-pyrrolo[3,4-b]pyridin-1-yl)acetamide] registered a concentration for half-maximal inhibition (IC50) with HEK293-STF3A cells below 100 nM.

In turn, `O=C(CN1CCCC2=C1C(=O)N(C1CC1)C2=O)Nc1ccc(-c2cc(F)ccn2)cn1` [Compound 156, 2-(6-cyclopropyl-5,7-dioxo-2,3,4,5,6,7-hexahydro-1H-pyrrolo[3,4-b]pyridin-1-yl)-N-(4-fluoro-[2,3′-bipyridin]-6′-yl)acetamide] showed an IC50 with HEK293-STF3A cells below 100 nM.

`Cc1cnc(-c2ccc(NC(=O)CN3CCCC4=C3C(=O)N(C3CC3)C4=O)nc2)cn1` [Compound 157, 2-(6-cyclopropyl-5,7-dioxo-2,3,4,5,6,7-hexahydro-1H-pyrrolo[3,4-b]pyridin-1-yl)-N-(5-(5-methylpyrazin-2-yl)pyridin-2-yl)acetamide] yielded an IC50 with HEK293-STF3A cells below 100 nM.

The compound `Cc1ccc(-c2ccc(NC(=O)CN3CCCC4=C3C(=O)N(C)C4=O)cn2)cc1` [Compound 158, 2-(6-methyl-5,7-dioxo-2,3,4,5,6,7-hexahydro-1H-pyrrolo[3,4-b]pyridin-1-yl)-N-(6-(p-tolyl)pyridin-3-yl)acetamide] yielded an IC50 in the assay with HEK293-STF3A cells below 100 nM.
